# Results reported in US20040006070A1, “Intraspinal continuous infusion of midazolam hydrochloride for the treatment of pain” (priority 2002, published 2004).
# Several values for one entry are separate records, joined by “and”; a condition that tells them apart may be missing. Identical values can stand only once. Entries after “also recorded” stand apart in the source; their conditions may differ. Counter-ions that a name gives are not always drawn.
# Assays:
# [1] = Toxicity testing of midazolam in the pig model, closed label (swine data); assay type: in vivo
# Protocol: Another closed label study was performed in pigs. This study was performed in response to implications of possible species-related toxicity reported by researchers in Turkey and France (Malinovsky et al., 1991; Svensson et al., 1995; Erdine et al, 1999). […] Rats were administered single or multiple bolus doses for 20 days. Rabbits were administered bolus injections of 0.1% midazolam (pH 3.3) in 0.3 ml or preservative-free midazolam (pH 3.5) in 0.3 ml for one day or five consecutive days. To further assess the safety of spinally administered midazolam by continuous infusion in a second species, three pigs were instrumented with Medtronic SynchroMed® intrathecal infusion systems. Pigs were administered 15 mg/day (N=2), or saline control (N=1).
# Acute Pain Sheep Model = experiment: Mechanical stimulus device nociceptive testing (% MPE), acute pain sheep model; assay type: in vivo
# Protocol: Open-label (known dose) trial: A trial with known midazolam doses was performed in the first 7 sheep. Animals were administered 3 mg/day (N=1), 5 mg/day (N=1), 10 mg/day (N=1), and 15 mg/day (N=4) for 43 days. These doses were chosen based upon previous intrathecal bolus dose studies in rats and humans, with conversion of from species to species based on cerebral spinal fluid (CSF) production rate and total CSF volume. Analgesic activity was assessed using a mechanical stimulus device which produces a stimulus of acute pain by application of force via a blunt needle applied to the shaved front foreleg of the animal. Force is applied with increasing pressure until the animal lifts its leg in response to the painful stimulus. To evaluate the analgesic effect of midazolam, response latencies were expressed as a percentage of the maximum possible effect, % MPE. The response latency is defined as follows: [formula]
# A mechanical stimulus device was used for the pain stimulus. […] The force applied to the pin was measured by strain gauges that are incorporated into the device on the leg. The output from the strain gauges was recorded on a millivoltmeter in the control box. […] To compare the effects of midazolam, the data were accumulated over the testing period, and all response latencies were expressed as percentage of the maximum possible effect (MPE) where: [formula] […]
# [2] = CSF, individual pigs, 15 mg, hydrochloride
# [3] = individual pigs, Drug Dose 15 mg, hydrochloride
# [4] = pigs, 15 mg/day continuous intrathecal infusion (N=2)
compound,measurement,setting,value
"Cc1ncc2n1-c1ccc(Cl)cc1C(c1ccccc1F)=NC2 [Midazolam, midazolam hydrochloride]",Routine Cultures Post Mortum,"[1]; CSF, individual pigs, 15 mg, cell wraps 'No' / 'Growth'",No
same,Glucose Post Mortum,[1]; [2],11 mg/dL and 31 mg/dL
same,Gross Exam Post Mortum,[1]; [2],Colorless; also recorded: cloudy; also recorded: clear
same,RBC Count Post Mortum,[1]; [2],"1,350 /ul and 0 /ul"
same,Total Protein Post Mortum,[1]; [2],73 mg/dL and 39 mg/dL
same,WBC Count Post Mortum,[1]; [2],888 µL⁻¹ and 117 µL⁻¹
same,clinical symptoms,"[1]; individual pigs, Drug Dose 15 mg",none
same,Final Weight,[1]; [3],147 and 170
same,Histopathological Changes,[1]; [3],Most foreign body reaction in all the pigs; also recorded: The least foreign body reaction in all the pigs. The spinal reaction
same,clinical or gross changes at necropsy,[1]; [4],No clinical or gross changes at necropsy were observed
same,"histology, toxicity related to the infusion",[1]; [4],no evidence of toxicity related to the midazolam infusion
same,pain relief,"Acute Pain Sheep Model; closed-label study, 5 or 15 mg/day intrathecal",significant pain relief
same,pain relief,"Acute Pain Sheep Model; open-label trial, all treated animals, 5-15 mg/day intrathecal for 43 days",significant pain relief
